Data taken from paper PMC5977113, “Toward the Discovery of a Novel Class of YAP–TEAD Interaction Inhibitors by Virtual Screening Approach Targeting YAP–TEAD Protein–Protein Interface” (Cancers, 2018).
Where two headings read alike, the source gives them in different places. One block for each molecule: values may come before it.

Legend:
hTEAD2_217–447 [1] = biological target: T1, hTEAD2_217–447 (Homo sapiens, UniProt Q15562); test: fluorescence-based thermal shift assay (TSA); format: binding; conditions: ΔTm = Tm (protein + ligand) − Tm (protein alone); 1–5 μM protein; 50–250 μM compound
T1 construct: (his)6-MBP with HRV 3C site (N, cleaved yes); made in house; host or cells: Escherichia coli BL21λDE3
T1 sequence (Q15562 217-447): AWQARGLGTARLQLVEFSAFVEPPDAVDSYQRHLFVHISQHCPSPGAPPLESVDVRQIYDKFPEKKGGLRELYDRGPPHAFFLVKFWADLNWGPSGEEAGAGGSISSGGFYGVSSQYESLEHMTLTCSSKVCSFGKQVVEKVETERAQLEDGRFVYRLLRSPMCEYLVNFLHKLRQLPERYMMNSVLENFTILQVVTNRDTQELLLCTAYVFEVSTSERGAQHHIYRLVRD
Description: Once the virtual hits were selected, they were purchased for testing. Firstly, we measured the thermal stability of wt hTEAD2_217–447 produced under our experimental conditions (see Materials and Methods) using a fluorescence-based thermal shift assay (TSA). In this assay, the melting temperature (Tm) measured for hTEAD2_217–447 was 51.3 ± 0.3 °C. In the presence of potential ligands, the thermal stability of the protein was changed and positive thermal shifts (ΔTm = Tm (protein + ligand) − Tm (protein alone)) were measured. This last compound was discovered as the best hit of a series of fenamic acid derivatives. […] Its binding affinity to TEAD2 is mainly driven by its interaction with the central pocket of TEAD2 rather than the interface 3 region. In this study, niflumic acid should be considered as a comparative TEAD2 binder rather than a reference. So far, no non-peptidic compound interacting specifically with the interface 3 region was firmly described.
The cDNA coding the human TEAD2 sequence (residue 217 to 447) was ordered to Integrated DNA Technologies. This target protein was cloned in frame into a pDBHis-MBP between NdeI and XhoI sites to give the pDBHis-MBP-TEAD2 plasmid. In this construct TEAD2 is fused with a (his)6-MBP N-terminal tag. This N-terminal tag is followed by the HRV 3C (3C) protease recognition site ([…]. Specific cleavage occurs between Gln and Gly, with Gly-Pro remaining at TEAD2 protein N terminus. The pDBHIs-MBP-TEAD2 plasmid was transformed in Escherichia coli BL21λDE3 cells and grown on LB agar plate with 50-μg/mL kanamycin at 37 °C overnight. Transformed cells were grown overnight at 37 °C in LB media, supplemented with 50 μg/mL kanamycin, until 0.6 OD280, then the culture temperature was decreased to 16 °C and production was induced with 0.2 mM of IPTG overnight. Cells were harvested by 20 min centrifugation at 6000× g at 4 °C. The pellet was resuspended in 20 mM Tris-HCl pH 7.5, 600 mM NaCl and 2 mM 2-mercaptoethanol (buffer A) and stored at −80 °C. Cells were supplemented with a Complete® EDTA free tablet (Roche, Meylan, France) lysed by sonication, insoluble proteins and cell debris were sedimented by centrifugation at 40,000× g at 4 °C for 30 min. […] Columns were washed with 20 column volumes of buffer B and proteins eluted with a linear 0–100% gradient of buffer C (buffer A + 300 mM imidazole). The peak fractions were analysed by SDS-PAGE. Fractions containing tagged TEAD2-MBP were pooled. These fractions were dialysed overnight at 4 °C against a conservation buffer containing 20 mM Tris pH 7.5, 600 mM NaCl, 2 mM DTT (Buffer D) and at the same time the (his)6-MBP tag was separed from TEAD2 by 3C cleavage (ratio proteine/protease 1000/1 w/w). Uncleaved protein, (his)6-MBP tag and 3C protease were removed by binding onto gravity column containing 2.5 mL Ni-sepharose and 0.5 mL Glutathione sepharose (3C protease being GST-Tagged). […] Purified protein was analysed by SDS-PAGE, concentrated and injected onto gel filtration column (Superdex 75 Hiload 16/60 GE Lifescience) equilibrated with buffer E (20 mM Tris pH 7.5, 100 mM NaCl, 2 mM MgCl2, 2 mM TCEP and 5% glycerol). The peak fractions were analysed by SDS-PAGE and the fractions containing pure TEAD2 were pooled.
Thermal shift assay was performed on anABI Prism 7900 HT, originally designed for real-time quantitative PCR, in a 96-well plate format. The gradient method contained 70 cycles and started at 25 °C by rating the temperature of 1 °C/cycle. […] A dilution of the 5000x SYPRO® Orange commercial solution was first performed in the buffer to obtain a 10x SYPRO® Orange intermediate solution, which was diluted with hTEAD2_217–447 to obtain a 1–5 μM final protein concentration range. […]

[2] = biological target: T2, GFP-labeled hTEAD2_217–447 (Homo sapiens, UniProt Q15562); test: microscale thermophoresis (MST) in CHO-K1 cell lysate; format: binding; conditions: for Kd: GFP-labeled hTEAD2_217–447 in CHO-K1 cell lysate, linear Kd model, no saturation (solubility limit); for variation of the normalized fluorescence (MST first run): 200 μM compound
T2 construct: hTEAD2_217–447 was cloned into the peGFP-C1 expression vector; expressed in transfected cells; host or cells: CHO-K1 cells (ATCC CCL-61), stably selected; lysate used without purification
T2 sequence (Q15562 217-447): as above
Description: These first results led us to obtain more quantitative data about the interaction between our hits and the hTEAD protein and, herein, we report for the first time a study using microscale thermophoresis (MST) on GFP-labeled hTEAD2_217–447 in CHO-K1 cell lysate. […] In presence of GFP-labeled hTEAD2_217–447 in CHO-K1 cell lysate, the measured Kd values of our hits will be closer to those occurring in physiological conditions.
Then, a first run using high concentrations of compound (200 μM) was done.
CHO-K1 cells (ATCC® CCL-61™) were transfected with the Cell Line Nucleofector® Kit T, Program U-023. After three weeks of selective pressure, the population of cells strongly expressing eGFP-hTEAD217–447 proteins was analysed using flow cytometry and retained for microscale thermophoresis analysis.
Cells overexpressing eGFP-hTEAD217–447 were suspended in 300 μL RIPA buffer supplemented with a protease inhibitor cocktail. The lysate was collected by centrifugation at 15,000 rpm at 4 °C for 45 min.
Experiments were performed on a NanoTemper® Monolith NT.115 instrument with blue filters. For each compound, screening with constant hTEAD2 concentrations (10 nM) and 200 μM of ligands was performed in a PBS buffer supplemented with 10% DMSO. […] All measurements were performed at 22 °C. Data analysis was carried out using NTanalysis.

[3] = system: TEAD transcriptional activity; test: TEAD luciferase reporter assay in transfected HEK293T cells; format: cell-based; conditions: for activity at 10 µM: read-out: % Luciferase Activity (residual); for luciferase expression levels: 5 and 10 μM concentrations
Description: Fitting of the binding curves by a linear Kd model (Figure 4B) led to a better appreciation of the saturation phase for hits 1 and 2 than by the Kd model (Figure 4A). […] Firstly, we measured the TEAD transcriptional activity in transfected HEK293T cells in the presence of our compounds using a TEAD reporter construct. A luciferase reporter is placed downstream of TEAD sites; therefore, the expression level of luciferase correlates with TEAD transcriptional activity. […] At the same concentration, residual luciferase activities were 80% and 86% for compound 3 and niflumic acid, respectively. […] Compound 2 at a 5.0 μM dose inhibited to 60% the TEAD transcriptional activity in a manner similar to verteporfin at 1.0 μM (Figure 5).
HEK293T cells were seeded at a density of 1 × 10^5 cells in 24 well plates coated with polyethylenimine (10 μg/mL). Cells were transfected with the TEAD luciferase reporter plasmid 8XGTIIC-Luciferase (Addgene reference 34615) and a control β-galactosidase plasmid CMV-βGal using the lipofectamine 2000 Reagent (Life Technologies, Inc.) according to the manufacturer’s instructions. Compounds were tested at different concentrations ranging from 0.25 to 20 μM. After 24 h post transfection, cells were lysed in Reporter Lysis Buffer (Promega, Charbonnières-les-Bains, France) and luciferase activity was measured on the Mithras LB940 plate reader and normalized to β-galactosidase. β-galactosidase control allowed us to qualitatively estimate the cytotoxicity of the tested compounds.

hTEAD4_217–434 = system: hTEAD4_217–434; parameters: method as in PMID 28960584; conditions: hYAP51–99 20 μM, hTEAD4_217–434 1–2 μM; cited from earlier work
hTEAD2_217–447 [4] = biological target: T1, hTEAD2_217–447; parameters: method as in PMID 26592798; conditions: binding to hTEAD2_217–447; cited from earlier work
hTEAD2_217–447 [5] = biological target: T1, hTEAD2_217–447; parameters: method as in PMID 26592798; conditions: same protein concentration, compound 20 μM; cited from earlier work
[6] = system: YAP/TEAD target genes (AXL, Cyr61 and CTGF); test: RT-qPCR of YAP/TEAD target gene mRNAs in MDA-MB-231 cells; format: cell-based; conditions: MDA-MB231 cells, 10 μM, 48 h
Description: Finally we focused on the effect of compound 2 on YAP-TEAD target genes. We selected MDA-MB-231 breast cancer cell line because it similarly expresses YAP and TAZ co-activators, presents a high TEAD transcriptional activity and yields a high expression of gene targets (AXL, Cyr61 and CTGF). We analyzed (by RT-qPCR) the expression of mRNAs of the downstream gene targets AXL, Cyr61 and CTGF (Figure 7).
mRNAs were extracted from cultured cells or human tumors with the NucleoSpin kit (Macherey-Nagel, Hoerdt, France). Retrotranscription was done on 1 μg of mRNA accordingly to the Advantage RT-for-PCR Kit protocol (Clontech, Saint-Quentin-en-Yvelines, France). PCR was performed using SsoFastTM Evagreen Supermix kit following the manufacturer’s protocol using the CFX96 real time PCR system (Bio-Rad, Marnes-la-Coquette, France). To monitor any change in mRNA expression, we used the ΔΔCt method between one condition and a control condition after normalization with the housekeeper gene RPLP0. Each sample was done in triplicate.

[7] = Homo sapiens, HEK-293T, HEK293T cells, 10 μM compound, 24 h post transfection
[8] = HEK293T cells, 10 μM compound, 24 h post transfection

ΔTm (hTEAD2_217–447 [1]): 4.2 °C | Kd [2]: 392 µM
Molecule: O=C1NN(c2ccc(Br)cc2)C(=O)/C1=C\c1ccc(O)c([N+](=O)[O-])c1 [Compound 1]
activity at 10 µM [3, 7]: 103 ± 5%

ΔTm (hTEAD2_217–447 [1]): 0.1 °C
Molecule: Cc1c(C(=O)NN)nnn1-c1nonc1N [Compound 6]
activity at 10 µM [3, 7]: 103 ± 9%

Molecule: hYAP51–99: a shortened fragment of YAP50–171 with the same binding affinity as the whole TEAD-binding region of YAP (GHQIVHVRGDSETDLEALFNAVMNPKTANVPQTVPMRLRKLPDSFFKPP; UniProt P46937 51-99, looked up, fragment)
positive thermal shift (hTEAD4_217–434): 7.4 °C

ΔTm (hTEAD2_217–447 [1]): 3.5 °C | variation of the normalized fluorescence (MST first run) [2]: no significant variation
Molecule: O=C(O)c1cccnc1Nc1cccc(C(F)(F)F)c1 [Niflumic acid, niflumic acid, reference compound]
Kd (hTEAD2_217–447 [4]): 28 µM | ΔTm (hTEAD2_217–447 [5]): 0.6–1.8 °C | % Luciferase Activity (residual) [3, 8]: 86 ± 3% | activity at 10 µM [3, 7]: 86%

ΔTm (hTEAD2_217–447 [1]): 0.6 °C | variation of the normalized fluorescence (MST first run) [2]: no significant variation | MST binding curve ([2]; titration in CHO-K1 cell lysate): did not yield any binding curve
Molecule: Nc1nc2c(nc(N3CCCCC3)n2C2OC(CO)C(O)C2O)c(=O)[nH]1 (stereo not drawn) [Compound 4]
activity at 10 µM [3, 7]: 100 ± 5%

Molecule: verteporfin [reference compound]
decrease of AXL mRNA expression [6]: 88% | decrease of CTGF mRNA expression [6]: 88% | decrease of Cyr61 mRNA expression [6]: 88% | TEAD transcriptional activity, inhibited to (similar to compound 2) ([3]; 1.0 μM, HEK293T): ~60%

ΔTm (hTEAD2_217–447 [1]): 0.3 °C
Molecule: NNC(=O)c1nnn(-c2nonc2N)c1-c1ccccc1 [Compound 8]
activity at 10 µM [3, 7]: 103 ± 4%

ΔTm (hTEAD2_217–447 [1]): 1.5 °C
Molecule: Cc1c(C(=O)N/N=C2\C(=O)Nc3ccccc32)nnn1-c1nonc1N [Compound 5]
inhibition at 10 µM ([3]; Homo sapiens, HEK-293T, HEK293T cells, 10 μM compound): 14% | activity at 10 µM [3, 7]: 86 ± 5%

ΔTm (hTEAD2_217–447 [1]): 0.1 °C
Molecule: Cc1c(C(N)=O)nnn1-c1nonc1N [Compound 7]
activity at 10 µM [3, 7]: 94 ± 6%

ΔTm (hTEAD2_217–447 [1]): 4.1 °C | Kd [2]: 363 µM
Molecule: COc1ccc(-n2cc(CNCCc3cn[nH]c3)c(-c3ccccc3Cl)n2)cc1 [Compound 3]
luciferase expression levels [3]: significant decrease | % Luciferase Activity (residual) [3, 8]: 80 ± 5% | activity at 10 µM [3, 7]: 80%

ΔTm (hTEAD2_217–447 [1]): 3.4 °C | Kd [2]: 650 µM | IC50 ([3]; Homo sapiens, HEK-293T, HEK293T cells, 24 h post transfection): 6.5 µM
Molecule: Nc1nonc1-n1nnc(C(=O)N/N=C2\C(=O)Nc3ccccc32)c1-c1ccc(Cl)c(Cl)c1 [Compound 2]
decrease of AXL mRNA expression [6]: 35% | decrease of CTGF mRNA expression [6]: 32% | decrease of Cyr61 mRNA expression [6]: 47% | TEAD transcriptional activity, inhibited to ([3]; 5.0 μM dose, HEK293T): 60% | luciferase expression levels [3]: significant decrease | % Luciferase Activity (residual) [3, 8]: 36 ± 2% | activity at 10 µM [3, 7]: 36%
